The results in this text go back to patent US6541463B1, “Inhibitors of type 5 and type 3 17β-hydroxysteroid dehydrogenase and methods for their use” (Endorecherche, Inc., priority 1998, dated 2003).

Tested on in one data set: not listed separately
The data set can be described thus: In vivo assay of oral bioavailability (plasma AUC 0-7 h by LCMS/MS). On the set-up: species or system male Sprague Dawley rats. As to conditions: AUC 0-7h. The procedure: In column 1, the oral bioavailability of preferred type 5 inhibitors, expressed in ng/mL.h, was determined as described below in “Other Tests, A-In Vivo Assays of Bioavailability of Human Type 5 17β-HSD Inhibitors”. Higher number are desirable. ND means that a determination was not done.
The measurements at various time intervals were for values greater than or equal to 1.0 ng/mL and less than or equal to 50 ng/mL.
Male Sprague-Dawley rats [Crl:CD(SD)Br] weighing 275-350 g were obtained from Charles-River Canada Inc. and housed 2 per cage during the acclimation period and individually during the study period. The animals were maintained under a regimen of 12 hours light: 12 hours dark (lights on at 08:00). Animals received certified Rodent feed (Lab Diet #5002, pellets) and tap water ad libitum. Rats were fasted (access to water only) starting on the evening prior to dosing.
Each compound to be tested was administered to three animals as a suspension in 0.4% methylcellulose by oral gavage at a dose of 0.5 mg/rat (1.0 ml/rat). Four to eight new compounds were tested each day and one group of animals received megestrol acetate (MGA) under the same conditions on each dosing day as a reference. […] Blood samples were immediately transferred into a refrigerated 0.75 ml Microtainer containing EDTA and kept in an ice-water bath until centrifugation at 3000 rpm for 10 minutes. Plasma separation was performed rapidly (less than 50 minutes) after blood collection. One aliquot of 0.25 ml of plasma was then transferred into a borosilicate tube (13×100) and was rapidly frozen on dry-ice. Plasma samples were kept at −80° C. until measurement of plasma concentration of the inhibitor(s) by LCMS/MS.
Aliquots of rat plasma (0.250 mL) were transferred to 13×100 mm borosilicate tubes. Water (1.0 mL) and internal standard solution (0.1 mL) were added to each sample and vortexed for 2 min. A mixture of N-butyl chloride and acetone (v:v, 7:3) (3 mL) was added to each sample and vortexed for 2 min. This step was repeated and the combined organic phases were evaporated to dryness under nitrogen in a Turbo Vap evaporator at 35° C. The residue was reconstituted with 1 mL of methanol and evaporated in a Turbo Vap evaporator at 35° C. The final extract was reconstituted into 0.1 mL of methanol/water (v:v, 75:25) and then transferred into a conical vial for injection into the mass spectrometer.
The assay procedure was performed by analyzing, in duplicate, rat plasma samples spiked at six different Type 5 inhibitor concentrations (1, 2, 5, 10, 20 and 50 ng/mL). The lower limit of quantitation (LOQ) was established at 1.0 ng/mL. Values lower than 1.0 ng/mL were expressed as below limit of quantification (BLQ). […]
With `COC(=O)CCCC(=O)O[C@]1(C(C)=O)CC[C@H]2[C@@H]3C=C(C)C4=CC(=O)CC[C@]4(C)[C@H]3CC[C@@]21C` [EM-1007, 6-Methyl-4,6-pregnadien-17α-ol-3,20-dione 4′-Carbomethoxybutyrate], the “Oral Bioavailability AUC 0-7h” value turned out to be 16.4 ng·h/mL.

The data set is the same for the next values; noted with them: male, Sprague-Dawley [Crl:CD(SD)Br], 0.5 mg; Table 4′; oral, rat plasma.
`CC1(C)CCC2(CCC3C4CCc5cc(O)c([N+](=O)[O-])cc5C4CCC32C)OC1=O` (stereo not drawn) [EM-1125-CS] showed an AUC(0-t) of 95 ± 6.5 ng·h/mL.

In turn, `CC1(C)CCC2(CCC3C4CCc5ccccc5C4CCC32C)OC1=O` (stereo not drawn) [CS-224] displayed an AUC(0-t) of 18 ± 3.5 ng·h/mL.

The same data set, now with this note: male, Sprague-Dawley [Crl:CD(SD)Br], rat, plasma, po, 0.5 mg.
Molecule `CCC(=O)O[C@]1(C(C)=O)CCC2C3C=C(C)C4=CC(=O)C[C@H](C)[C@]4(C)C3CC[C@@]21C` (stereo partly drawn) [CS-243] came in with an AUC(0-t) of 11 ± 2.5 ng·h/mL.

Still in this data set, the particulars now being: male, Sprague-Dawley [Crl:CD(SD)Br], rat, plasma, po, 0.5 mg; Table 4′; cell marked (8 h).
As for `C[C@]12CCC3c4cc([N+](=O)[O-])c(O)cc4CCC3C1CC[C@@]21CCCC(=O)O1` (stereo partly drawn) [EM-1124, 2-Nitro-1,3,5(10)-estraetriene-3-ol-17(R)-spiro-2′-(6′-oxo)tetrahydropyran], the AUC(0-t) stood at 5.1 ± 1 ng·h/mL.

In a further data set the target is T1, human type 2 17β-hydroxysteroid dehydrogenase (Homo sapiens, UniProt P37059).
T1 construct: expressed in transfected cells; host or cells: 293 cells, transient transfection; microsomal fraction (100 000×g pellet)
T1 sequence (P37059 1-387): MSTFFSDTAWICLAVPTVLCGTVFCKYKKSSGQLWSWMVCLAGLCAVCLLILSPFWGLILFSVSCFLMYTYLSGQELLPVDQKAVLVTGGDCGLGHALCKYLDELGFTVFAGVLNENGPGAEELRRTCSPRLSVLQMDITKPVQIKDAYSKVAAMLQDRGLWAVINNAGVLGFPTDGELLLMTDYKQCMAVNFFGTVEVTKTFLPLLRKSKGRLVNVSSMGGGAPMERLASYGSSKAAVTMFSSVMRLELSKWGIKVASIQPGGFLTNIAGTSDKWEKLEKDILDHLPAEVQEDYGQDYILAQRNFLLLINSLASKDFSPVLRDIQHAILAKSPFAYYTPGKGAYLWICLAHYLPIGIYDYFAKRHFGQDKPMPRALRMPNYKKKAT
The data set can be described thus: Enzymatic assay for type 2 17β-HSD. The data set is classed as biochemical. The note with it: Table 4′; bracketed values, 3 · 10^−8M. The procedure:
The manner in which IC50 was determined is described in “Efficacy of Preferred Inhibitors: VI. Enzymatic assay for types 1, 2, and 3 17β-HSD and types 1 and 3 3α-HSD”. […] numbers of IC50 are desirable. Blank means that a determination was not done. […]
Enzyme sources. 293 cells transiently transfected with expression vectors encoding types 1, 2 and 3 17β-HSD (Luu-The et al., J. Steroid Biochem. Molec. Biol., 55: 581-587, 1995), types 1 and 2 5α-reductase (Luu-The et al., J. Invest. Dermatol., 102: 221-226, 1994) and types 1 and 3 3α-HSD (Dufort et al. Biochem. Biophys. Res. Commun. 228: 474-479, 1996), using the calcium phosphate procedure (Kingston et al., In: Current Protocols in Molecular Biology. Edited by E. M. Ausbel, R. Brent, R. E. Kingston, D. D. Moore, J. G. Seidman, J. A. Smith, K. Struhl. John Wiley & Sons, New York, pp. 9.1.1-9.1.9, 1991; Luu-The et al., J. Invest. Dermatol., 102: 221-226, 1994). For assays using cell subfractions, cells were sonicated in 50 mM sodium phosphate buffer (pH 7.4), containing 20% glycerol and 1 mM EDTA and centrifuged at 10 000×g for 30 min before centrifugation for 100 000×g for 1 h to separate the mitochondrial and microsomal fractions, respectively. The cytosol fractions (100 000×g supernatant) was used to determine type 1 activity while the microsomal fraction (pellet at 100 000×g) was used for measurement of types 2 and 3 17β-HSD activities.
Incubation. The enzymatic reaction was carried out at 37° C. in 1 ml of 50 mM sodium phosphate buffer, pH 7.4, containing 20% glycerol, 1 mM EDTA, and 2 mM cofactors (NADPH or AND^+) for 1 h in the presence of 0.1 μM ^14C-labeled substrate: estrone and 4-dione for types 1 and […] 17β-HSD, respectively, testosterone for type 2 17β-HSD as well as types 1 and 2 5α-reductases, DHT for types 1 and 3 3α-HSD activities, and the indicated concentration of inhibitor.
Extraction of metabolites, migration on TLC and quantification were as described above for the assay of type 5 17β-HSD.
Regarding `CC1CCC2(CCC3C4CCc5cc(O)c([N+](=O)[O-])cc5C4CCC32C)OC1=O` [EM-1126, 2-Nitro-1,3,5(10)-estratrien-3-ol-17(R)-spiro-2′-(5′-methyl-6′-oxo)tetrahydropyran], the “Inhibition Type 2 17β-HSD Activity [% Inh. at 3 · 10^−8M]” value is “[59] %”.

In the case of `COCCOc1cc2c(cc1C(F)(F)F)[C@H]1CC[C@@]3(C)[C@@H](CC[C@@]34CCC(C)(C)C(=O)O4)[C@@H]1CC2` [EM-1438, 3-(2′-Methoxyethoxy)-2-trifluoromethyl-1,3,5(10)-estratrien-17(R)-spiro-2′-(5′,5′-dimethyl-6′-oxo)tetrahydropyran], the “Inhibition Type 2 17β-HSD Activity [% Inh. at 3 · 10^−8M]” value was “[72] %”.

`CC1(C)CC[C@@]2(CC[C@H]3[C@@H]4CCc5c(cc(Br)c(O)c5Br)[C@H]4CC[C@@]32C)OC1=O` [EM-1382-CS]: the “Inhibition Type 2 17β-HSD Activity [% Inh. at 3 · 10^−8M]” value is “[70] %”.

Consider `CC1(C)CCC2(CCC3C4CCc5cc(C(=O)OCc6ccccc6)ccc5C4CCC32C)OC1=O` (stereo not drawn) [EM-1398], for which the “Inhibition Type 2 17β-HSD Activity [% Inh. at 3 · 10^−8M]” value is “[64] %”.

Still in this data set, the particulars now being: Table 4′; bracketed values, 3 · 10^−8M; read-out: Inhibition Type 2 17β-HSD Activity [% Inh. at 3 · 10^−8M].
As to `CC1CC(=O)OC2(CCC3C4CCc5cc(O)ccc5C4CCC32C)C1` [PB-132-142, 3-Hydroxy-1,3,5(10)-estratrien-17(R)-spiro-2′-(4′-methyl-6′-oxo)tetrahydropyran], the inhibition amounted to 69%.

With `COCCOc1ccc2c(c1)C(=O)CC1C2CCC2(C)C1CCC21CCC(C)(C)C(=O)O1` (stereo not drawn) [EM-1408-CS], the inhibition came out at 66%.

With `CCS(=O)(=O)Oc1ccc2c(c1)CCC1C2CCC2(C)C1CCC21CCC(C)(C)C(=O)O1` (stereo not drawn) [EM-1364-CS], the inhibition was 73%.

As for `C=CCC1CCC2(CCC3C4CCc5cc(O)ccc5C4CCC32C)OC1=O` [PB-132-152, 3-Hydroxy-1,3,5(10)-estratrien-17(R)-2′-(5′-allyl-6′-oxo)tetrahydropyran], the inhibition stood at 50%.

Regarding `CN(C)C(=O)c1cc2c(cc1O)CCC1C2CCC2(C)C1CCC21CCC(C)(C)C(=O)O1` (stereo not drawn) [EM-01661-B], the inhibition is 55%.

As to `CC12CCC3c4ccc(F)cc4CCC3C1CCC21CCCC(=O)O1` (stereo not drawn) [EM-1170-CS], the inhibition was found to be 84%.

Consider `COCCOc1cc2c(cc1C(=O)N(C)C)C1CCC3(C)C(CCC34CCC(C)(C)C(=O)O4)C1CC2` (stereo not drawn) [EM-1413-CS], for which the inhibition amounted to 69%.

Turning to `COc1ccc2c(c1)CCC1C2CCC2(C)C1CCC21CCC(C)(C)C(=O)O1` (stereo not drawn) [EM-1370], the inhibition was 33%.

In the case of `CCOc1ccc2c(c1)CCC1C2CC[C@@]2(C)C1CC[C@@]21CCC(C)(C)C(=O)O1` (stereo partly drawn) [EM-1369, 3-Ethoxy-1,3,5(10)-estratrien-17(R)-spiro-2′-(5′,5′-dimethyl-6′-oxo)-tetrahydropyran], the inhibition is 62%.

In the case of `COCCOc1ccc2c(c1)CCC1C2CCC2(C)C1CCC21CCC(C)(C)C(=O)O1` [EM-1368-CS, 3-Methoxyethoxy-1,3,5(10)-estratrien-17(R)-spiro-2′-(5′,5′-dimethyl-6′-oxo)-tetrahydropyran], the inhibition was determined as 73%.

Take `CC1(C)CC[C@@]2(CCC3C4CCc5cc6oncc6cc5C4CC[C@@]32C)OC1=O` (stereo partly drawn) [EM-1407-CS, 1,3,5(10)-estratrien-(2,3-oximino)-17(R)-spiro-2′-(5′,5′-dimethyl-6′-oxo)tetrahydropyran]: the inhibition was 68%.

In the case of `COC(=O)c1cc2c(cc1O)CCC1C2CCC2(C)C1CCC21CCC(C)(C)C(=O)O1` (stereo not drawn) [EM-01662], the inhibition is 70%.

Consider `COC(=O)C1CCC2(CCC3C4CCc5cc(O)ccc5C4CCC32C)OC1=O` [PB-132-146, 3-Hydroxy-1,3,5(10)-estratrien-17(R)-2′-(5′-methoxycarbonyl-6′-oxo)tetrahydropyran], for which the inhibition was determined as 75%.

`CC1(C)CCC2(CCC3C4CCc5cc(O)c(C(N)=O)cc5C4CCC32C)OC1=O` (stereo not drawn) [EM-01660]: the inhibition was found to be 59%.

Turning to `CC1CCC2(CCC3C4CCc5ccccc5C4CCC32C)OC1=O` (stereo not drawn) [EM-1025], the inhibition was 64%.

Staying with this data set, now noted: Table 4′; read-out: Inhibition Type 2 17β-HSD Activity IC50.
As to `COCCOc1cc2c(cc1F)C1CCC3(C)C(CCC34CCC(C)(C)C(=O)O4)C1CC2` (stereo not drawn) [EM-1393-CS], the IC50 is greater than 10 µM.

Take `COCCOc1cc2c(cc1C(=O)O)C1CCC3(C)C(CCC34CCC(C)(C)C(=O)O4)C1CC2` [EM-1405, 2-Carboxy-3-(2″-methoxyethyloxy)-1,3,5(10)-estratrien-17(R)-spiro-2′-(5′,5′-dimethyl-6′-oxo)tetrahydropyran]: the IC50 is greater than 10 µM.

`COc1cc2c(cc1C)C1CCC3(C)C(CCC34CCC(C)(C)C(=O)O4)C1CC2` (stereo not drawn) [EM-1412-CS]: the IC50 was greater than 10 µM.

Turning to `CC1(C)CCC2(CCC3C4CCc5cc(OS(C)(=O)=O)ccc5C4CCC32C)OC1=O` (stereo not drawn) [EM-1365-CS], the half-maximal inhibitory concentration (IC50) was greater than 10 µM.

With `COCCOc1cc2c(cc1C(=O)N(C)C)C1CCC3(C)C(CCC34CCC(C)(C)C(=O)O4)C1CC2` (stereo not drawn) [EM-1413-CS], the IC50 was greater than 10 µM.

Staying with this data set, now noted: Table 5 column 5; bracketed values, 3.10^−5 M.
As for `CN1C(=O)C=C[C@]2(C)C3CC[C@@]4(C)C(CC[C@@]45CCCC(=O)O5)C3CCC12` (stereo partly drawn) [EM-1122-CS], the “Inhibition Type 2 17β-HSD Activity [% Inh. at 3.10^−5 M]” value is “[90] %”.

The AUC(0-t) is the area under the concentration-time curve up to a stated or last time point. A high value points to more exposure. As a reminder, the inhibition is the percentage by which the read-out fell short of the control. Broadly, the IC50 is the concentration that gives 50% inhibition.
